pKd: −log10 of the molar value.
How the values were obtained:
Rbp47b self-assembly = target: T1, Rbp47b self-assembly (Arabidopsis thaliana, UniProt Q0WW84); assay: MST measurement of Rbp47b self-assembly; format: binding; conditions: 50 μM 2′,3′-cAMP; in its absence Kd=127.87 nM (128 nM); read-out: Kd of Rbp47b self-assembly in the presence of the ligand
T1 construct: GFP (C, cleaved yes); made in house; host or cells: E. coli Rosetta
T1 sequence (Q0WW84 1-435): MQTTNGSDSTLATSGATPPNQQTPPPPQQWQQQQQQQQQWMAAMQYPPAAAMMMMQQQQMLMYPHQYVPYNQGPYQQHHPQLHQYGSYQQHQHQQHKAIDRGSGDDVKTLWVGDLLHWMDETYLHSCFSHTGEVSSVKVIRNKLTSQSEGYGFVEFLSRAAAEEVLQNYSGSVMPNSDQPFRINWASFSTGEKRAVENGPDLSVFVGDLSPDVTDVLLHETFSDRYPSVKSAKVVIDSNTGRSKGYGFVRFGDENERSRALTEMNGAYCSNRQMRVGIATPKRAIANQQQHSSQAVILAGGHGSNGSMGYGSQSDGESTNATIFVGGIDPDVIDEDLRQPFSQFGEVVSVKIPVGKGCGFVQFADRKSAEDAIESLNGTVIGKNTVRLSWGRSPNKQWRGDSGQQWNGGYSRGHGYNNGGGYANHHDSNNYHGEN
Text: In plants 2′,3′-cAMP levels increase rapidly under wounding stress (Van Damme (2014) (loc. cit.)). To test whether 2′,3′-cAMP level changes in other stress conditions we queried metabolomics date from stress time-course of (Caldana et al. (2011) High-density kinetic analysis of the metabolomic and transcriptomic response of Arabidopsis to eight environmental conditions. Plant J 67: 869-884). Shortly, mature Col-0 rosettes (prior bolting) grown in the control environment, were transferred into combinations of light (low light, high light, darkness) and temperature stress conditions (heat and cold) and sampled in multiple time-points until 24 h following stress onset. […] If the interaction takes place in the cytosol, where both, Rbp47b and 2′,3′-cAMP are present, one would expect that 2′,3′-cAMP might influence stress granules formation, meaning oligomerization of Rbp47b. Due to the lack of commercially available membrane permeable derivative of 2′,3′-cAMP molecule, we were unable to follow stress granules formation in vivo. However we tested this hypothesis directly by determining the oligomerization of Rbp47b in the presence and absence of saturating amounts of 2′,3′-cAMP by MST. […] 2′,3′-cAMP, besides being the degradation product of mRNA, could play a regulatory role by influencing the oligomerization of the Rbp47b protein, in turn influencing the formation of SGs. […]

Rbp47b-TAP protein = target: T2, Rbp47b-TAP protein (Arabidopsis thaliana, UniProt Q0WW84); assay: Cellular thermal shift assay (CETSA) in native Arabidopsis lysate; format: binding; conditions: read-out: change of Rbp47b melting temperature (thermal destabilization)
T2 construct: expressed in transfected cells; host or cells: Arabidopsis cell suspension culture, Agrobacterium-transformed
T2 sequence (Q0WW84 1-435): T1 sequence (Q0WW84 1-435)
Procedure: To this end we set out to identify the binding protein partners of 2′,3′-cAMP by applying affinity purification (AP) using agarose beads, with 2′,3′-cAMP linked via the NH2 group of the purine ring. After incubation of the beads with total soluble-protein extracts from A. thaliana cell suspension cultures (cf. Materials and Methods) sequential washings with ADP, GDP, 5′-AMP, and finally 2′,3′-cAMP were performed, and the proteins eluting in the different washings were analyzed by LC-MS/MS proteomics. Proteins eluting from the agarose beads exclusively with 2′,3′-cAMP but absent in any of the other eluents (ADP, GDP, or 5′-AMP; FIG. 10A) were defined as 2′,3′-cAMP-binding. Applying this stringent criterion only one protein remained: the polyadenylate-binding protein Rbp47b. We reasoned that the putative formation of Rbp47b-2′,3′-cAMP complexes in vivo should be reflected by largely overlapping elution profiles of the two components in a size-exclusion experiment (SEC), as was indeed the case (FIG. 10B). To obtain further and independent evidence for the formation of a complex between Rbp47b and 2′,3′-cAMP, we performed a cellular thermal shift assay (CETSA) (Franken et al. (2015) Thermal proteome profiling for unbiased identification of direct and indirect drug targets using multiplexed quantitative mass spectrometry. Nat Protoc 10: 1567-1593). CESTA is a method used in the drug research to verify ligand-receptor binding in the native cellular lysate, based on the observation that presence of the ligand changes thermal stability of the protein receptor. Herein, we adapted the protocol to be suitable for the plant material and an endogenous […] metabolite. We used Arabidopsis cells expressing a tagged version of the Rbp47b, so that Rbp47b level could be easily detected with the anti-tag antibody. […] Taken together, three independent experimental approaches (AP, SEC, and CETSA) provide evidence for the binding of 2′,3′-cAMP to Rbp47b in the native Arabidopsis lysate. […]

**Q.** `Nc1ncnc2c1ncn2[C@@H]1O[C@H](CO)[C@H]2OP(=O)(O)O[C@H]21` [2′,3′-cAMP] was tested. Which pKd (Rbp47b self-assembly) did it give?
**A.** The pKd was 8.05.

**Q.** And the ΔTm at 10 µM (Rbp47b-TAP protein)?
**A.** The ΔTm at 10 µM was 2.4 °C.

**Q.** What about the ΔTm at 100 µM (Rbp47b-TAP protein) of the same molecule?
**A.** Its ΔTm at 100 µM is 5.1 °C.

Reference: patent US10976310B2, “Ligand identification by co-fractionation” (MAX-PLANCK-GESELLSCHAFT ZUR FÖRDERUNG DER WISSENSCHAFTEN …, priority 2016, dated 2021)
